Measurements taken from ChEMBL document CHEMBL3608307, “(±)-Acortatarinowins A-F, Norlignan, Neolignan, and Lignan Enantiomers from Acorus tatarinowii” (J Nat Prod, 2015).

Tested on: RAW264.7
Test: Inhibition of LPS-induced nitric oxide production in mouse RAW264.7 cells after 24 hrs by Griess assay
Assay type: functional, cell-based
Settings: RAW264.7, 24 h

SMILES | IC50 [µM]
C[C@@H]1C[C@H]2[C@@H]3CCC4=CC(=O)C=C[C@]4(C)[C@@]3(F)[C@@H](O)C[C@]2(C)[C@@]1(O)C(=O)CO [DEXAMETHASONE] | 0.8
COC(=O)c1ccc(O[C@@H](C)[C@@H](O)c2cc(OC)c(OC)c(OC)c2)c(OC)c1 | 29.5
COc1ccc([C@H]2OC[C@H]3[C@@H]2CO[C@@H]3c2ccc(OC)c(OC)c2)cc1OC [(+)-EUDESMIN] | > 50
COc1cc(OC)cc([C@@H]2OC[C@@H]3[C@H]2CO[C@H]3c2cc(OC)c(OC)c(OC)c2)c1 | 26.6
COc1cc(OC)cc([C@H]2OC[C@H]3[C@@H]2CO[C@@H]3c2cc(OC)c(OC)c(OC)c2)c1 | > 50
COc1ccc([C@@H]2OC[C@@H]3[C@H]2CO[C@H]3c2ccc(OC)c(OC)c2)cc1OC [EUDESMINE] | > 50
COC(=O)c1ccc(O[C@@H](C)[C@@H](O)c2ccc(OC)c(OC)c2)c(OC)c1 (relative stereo) | 23.3
COc1cc([C@@H]2O[C@@H](c3ccc(O)c(OC)c3)[C@H](C)[C@H]2C)ccc1O | 37.8
COc1cc(OC)c([C@@H]2[C@H](C)[C@H](c3cc(OC)c(OC)cc3OC)O[C@H]2C)cc1OC | > 50
COc1cc([C@H]2O[C@H](c3ccc(O)c(OC)c3)[C@@H](C)[C@@H]2C)ccc1O | 38
COc1cc(OC)c([C@H]2[C@@H](C)[C@@H](c3cc(OC)c(OC)cc3OC)O[C@@H]2C)cc1OC | > 50
